A compilation of properties of binary mixtures (doi:10.1016/j.molliq.2016.02.018)

Test: xn = mol fraction of the nth substance listed
Settings: 101 kPa

CCCC[n+]1ccn(C)c1.O=S(=O)([N-]S(=O)(=O)C(F)(F)F)C(F)(F)F + CC(=O)[O-].CCCC[n+]1ccn(C)c1
x1 = 1
Settings	electrical conductivity [S/m]	viscosity [mPa·s]
283.15 K	0.207	106
298.15 K	0.404	51
333.15 K	1.18	15.5

CC(=O)[O-].CCCC[n+]1ccn(C)c1 + CCCC[n+]1ccn(C)c1.O=S(=O)([N-]S(=O)(=O)C(F)(F)F)C(F)(F)F
Settings	electrical conductivity, 283.15 K [S/m]	electrical conductivity, 298.15 K [S/m]	electrical conductivity, 313.15 K [S/m]	electrical conductivity, 314.3 K [S/m]	electrical conductivity, 333.15 K [S/m]	viscosity, 283.15 K [mPa·s]	viscosity, 298.15 K [mPa·s]	viscosity, 313.15 K [mPa·s]	viscosity, 314.3 K [mPa·s]	viscosity, 333.15 K [mPa·s]
x2 = 0	–	0.0522	–	0.146	0.369	–	441	–	132	54.7
x2 = 0.1057	–	0.0683	–	–	–	–	343	–	–	–
x2 = 0.2396	0.0292	0.0856	0.196	–	0.46	817	255	102	–	40.3
x2 = 0.321	–	–	–	0.237	–	–	–	–	70	–
x2 = 0.3662	–	0.109	–	–	0.514	–	192	–	–	34.3
x2 = 0.5245	0.0623	0.153	0.309	0.33	0.639	357	134	62	–	27.9
x2 = 0.6541	0.0888	0.203	–	–	0.755	248	101	–	–	23.5
x2 = 0.8097	0.133	–	–	–	0.932	165	–	–	–	19.4
